Measurements as given in patent US6960574B2, “Antagonists of RF-amide neuropeptides” (University of Florida, priority 2002, dated 2005).
Peptide text beside a SMILES is read from it. * marks the point of attachment. Dansyl = CN(C)c1cccc2c(S(=O)(=O)*)cccc12

What follows are compounds tested on receptor labeled by the radioiodinated analogue of 1 (4, [125I]-YLFQPQRF-NH2); neuropeptide FF receptor (assay: Competitive radioligand binding against 4 ([125I]Y8F-amide)). Settings: mixture-based positional scanning; difference from averaged radioligand displacement of whole library (0); about 80 a.u. = 10-fold change in Ki.

Row | Relative Binding Index (RBI) [a.u.] | SMILES
1 | 22 | CN(C)c1cccc2c(S(=O)(=O)N[C@@H](CC(N)=O)C(=O)N[C@@H](Cc3c[nH]c4ccccc34)C(=O)N[C@@H](CCCNC(=N)N)C(N)=O)cccc12 [Dansyl-NWR-amide] (Dansyl-Asn-Trp-Arg-NH2)
2 | 12 | CN(C)c1cccc2c(S(=O)(=O)N[C@@H](CC(N)=O)C(=O)N[C@@H](Cc3ccc(O)cc3)C(=O)N[C@@H](CCCNC(=N)N)C(N)=O)cccc12 [Dansyl-NYR-amide] (Dansyl-Asn-Tyr-Arg-NH2)
3 | −97 | C[C@H](NC(=O)[C@@H]1CCCN1S(=O)(=O)c1cccc2c(N(C)C)cccc12)C(=O)N[C@@H](CCCNC(=N)N)C(N)=O [Dansyl-PAR-amide] (Dansyl-Pro-Ala-Arg-NH2)
4 | −66 | CN(C)c1cccc2c(S(=O)(=O)N3CCC[C@H]3C(=O)N[C@@H](CC(=O)O)C(=O)N[C@@H](CCCNC(=N)N)C(N)=O)cccc12 [Dansyl-PDR-amide] (Dansyl-Pro-Asp-Arg-NH2)
5 | −48 | CN(C)c1cccc2c(S(=O)(=O)N3CCC[C@H]3C(=O)N[C@@H](CCC(=O)O)C(=O)N[C@@H](CCCNC(=N)N)C(N)=O)cccc12 [Dansyl-PER-amide] (Dansyl-Pro-Glu-Arg-NH2)
6 | −49 | CN(C)c1cccc2c(S(=O)(=O)N3CCC[C@H]3C(=O)N[C@@H](Cc3ccccc3)C(=O)N[C@@H](CCCNC(=N)N)C(N)=O)cccc12 [Dansyl-PFR-amide] (Dansyl-Pro-Phe-Arg-NH2)
7 | −43 | CN(C)c1cccc2c(S(=O)(=O)N3CCC[C@H]3C(=O)NCC(=O)N[C@@H](CCCNC(=N)N)C(N)=O)cccc12 [Dansyl-PGR-amide] (Dansyl-Pro-Gly-Arg-NH2)
8 | −54 | CN(C)c1cccc2c(S(=O)(=O)N3CCC[C@H]3C(=O)N[C@@H](Cc3cnc[nH]3)C(=O)N[C@@H](CCCNC(=N)N)C(N)=O)cccc12 [Dansyl-PHR-amide] (Dansyl-Pro-His-Arg-NH2)
9 | −41 | CC[C@H](C)[C@H](NC(=O)[C@@H]1CCCN1S(=O)(=O)c1cccc2c(N(C)C)cccc12)C(=O)N[C@@H](CCCNC(=N)N)C(N)=O [Dansyl-PIR-amide] (Dansyl-Pro-Ile-Arg-NH2)
10 | −50 | CN(C)c1cccc2c(S(=O)(=O)N3CCC[C@H]3C(=O)N[C@@H](CCCCN)C(=O)N[C@@H](CCCNC(=N)N)C(N)=O)cccc12 [Dansyl-PKR-amide] (Dansyl-Pro-Lys-Arg-NH2)
11 | −56 | CC(C)C[C@H](NC(=O)[C@@H]1CCCN1S(=O)(=O)c1cccc2c(N(C)C)cccc12)C(=O)N[C@@H](CCCNC(=N)N)C(N)=O [Dansyl-PLR-amide] (Dansyl-Pro-Leu-Arg-NH2)
12 | −48 | CSCC[C@H](NC(=O)[C@@H]1CCCN1S(=O)(=O)c1cccc2c(N(C)C)cccc12)C(=O)N[C@@H](CCCNC(=N)N)C(N)=O [Dansyl-PMR-amide] (Dansyl-Pro-Met-Arg-NH2)
13 | −47 | CN(C)c1cccc2c(S(=O)(=O)N3CCC[C@H]3C(=O)N[C@@H](CC(N)=O)C(=O)N[C@@H](CCCNC(=N)N)C(N)=O)cccc12 [Dansyl-PNR-amide] (Dansyl-Pro-Asn-Arg-NH2)
14 | −45 | CN(C)c1cccc2c(S(=O)(=O)N3CCC[C@H]3C(=O)N3CCC[C@H]3C(=O)N[C@@H](CCCNC(=N)N)C(N)=O)cccc12 [Dansyl-PPR-amide] (Dansyl-Pro-Pro-Arg-NH2)
15 | −49 | CN(C)c1cccc2c(S(=O)(=O)N3CCC[C@H]3C(=O)N[C@@H](CCCNC(=N)N)C(=O)N[C@@H](CCCNC(=N)N)C(N)=O)cccc12 [Dansyl-PRR-amide]
16 | −27 | CN(C)c1cccc2c(S(=O)(=O)N3CCC[C@H]3C(=O)N[C@@H](CO)C(=O)N[C@@H](CCCNC(=N)N)C(N)=O)cccc12 [Dansyl-PSR-amide] (Dansyl-Pro-Ser-Arg-NH2)
17 | −42 | C[C@@H](O)[C@H](NC(=O)[C@@H]1CCCN1S(=O)(=O)c1cccc2c(N(C)C)cccc12)C(=O)N[C@@H](CCCNC(=N)N)C(N)=O [Dansyl-PTR-amide] (Dansyl-Pro-Thr-Arg-NH2)
18 | −53 | CC(C)[C@H](NC(=O)[C@@H]1CCCN1S(=O)(=O)c1cccc2c(N(C)C)cccc12)C(=O)N[C@@H](CCCNC(=N)N)C(N)=O [Dansyl-PVR-amide] (Dansyl-Pro-Val-Arg-NH2)
19 | −39 | CN(C)c1cccc2c(S(=O)(=O)N3CCC[C@H]3C(=O)N[C@@H](Cc3c[nH]c4ccccc34)C(=O)N[C@@H](CCCNC(=N)N)C(N)=O)cccc12 [Dansyl-PWR-amide] (Dansyl-Pro-Trp-Arg-NH2)
20 | −28 | C[C@H](NC(=O)[C@H](CCC(N)=O)NS(=O)(=O)c1cccc2c(N(C)C)cccc12)C(=O)N[C@@H](CCCNC(=N)N)C(N)=O [Dansyl-QAR-amide] (Dansyl-Gln-Ala-Arg-NH2)

Row | Relative Binding Index (RBI) [a.u.] | SMILES
21 | 3 | CN(C)c1cccc2c(S(=O)(=O)N[C@@H](CCC(N)=O)C(=O)N[C@@H](CC(=O)O)C(=O)N[C@@H](CCCNC(=N)N)C(N)=O)cccc12 [Dansyl-QDR-amide] (Dansyl-Gln-Asp-Arg-NH2)
22 | 22 | CN(C)c1cccc2c(S(=O)(=O)N[C@@H](CCC(N)=O)C(=O)N[C@@H](CCC(=O)O)C(=O)N[C@@H](CCCNC(=N)N)C(N)=O)cccc12 [Dansyl-QER-amide] (Dansyl-Gln-Glu-Arg-NH2)
23 | 20 | CN(C)c1cccc2c(S(=O)(=O)N[C@@H](CCC(N)=O)C(=O)N[C@@H](Cc3ccccc3)C(=O)N[C@@H](CCCNC(=N)N)C(N)=O)cccc12 [Dansyl-QFR-amide]
24 | 27 | CN(C)c1cccc2c(S(=O)(=O)N[C@@H](CCC(N)=O)C(=O)NCC(=O)N[C@@H](CCCNC(=N)N)C(N)=O)cccc12 [Dansyl-QGR-amide] (Dansyl-Gln-Gly-Arg-NH2)
25 | 16 | CN(C)c1cccc2c(S(=O)(=O)N[C@@H](CCC(N)=O)C(=O)N[C@@H](Cc3c[nH]cn3)C(=O)N[C@@H](CCCNC(=N)N)C(N)=O)cccc12 [Dansyl-QHR-amide] (Dansyl-Gln-His-Arg-NH2)
26 | 28 | CC[C@H](C)[C@H](NC(=O)[C@H](CCC(N)=O)NS(=O)(=O)c1cccc2c(N(C)C)cccc12)C(=O)N[C@@H](CCCNC(=N)N)C(N)=O [Dansyl-QIR-amide] (Dansyl-Gln-Ile-Arg-NH2)
27 | 19 | CN(C)c1cccc2c(S(=O)(=O)N[C@@H](CCC(N)=O)C(=O)N[C@@H](CCCCN)C(=O)N[C@@H](CCCNC(=N)N)C(N)=O)cccc12 [Dansyl-QKR-amide] (Dansyl-Gln-Lys-Arg-NH2)
28 | 13 | CC(C)C[C@H](NC(=O)[C@H](CCC(N)=O)NS(=O)(=O)c1cccc2c(N(C)C)cccc12)C(=O)N[C@@H](CCCNC(=N)N)C(N)=O [Dansyl-QLR-amide] (Dansyl-Gln-Leu-Arg-NH2)
29 | 21 | CSCC[C@H](NC(=O)[C@H](CCC(N)=O)NS(=O)(=O)c1cccc2c(N(C)C)cccc12)C(=O)N[C@@H](CCCNC(=N)N)C(N)=O [Dansyl-QMR-amide] (Dansyl-Gln-Met-Arg-NH2)
30 | 23 | CN(C)c1cccc2c(S(=O)(=O)N[C@@H](CCC(N)=O)C(=O)N[C@@H](CC(N)=O)C(=O)N[C@@H](CCCNC(=N)N)C(N)=O)cccc12 [Dansyl-QNR-amide] (Dansyl-Gln-Asn-Arg-NH2)
31 | 25 | CN(C)c1cccc2c(S(=O)(=O)N[C@@H](CCC(N)=O)C(=O)N3CCC[C@H]3C(=O)N[C@@H](CCCNC(=N)N)C(N)=O)cccc12 [Dansyl-QPR-amide] (Dansyl-Gln-Pro-Arg-NH2)
32 | 35 | CN(C)c1cccc2c(S(=O)(=O)N[C@@H](CCC(N)=O)C(=O)N[C@@H](CCC(N)=O)C(=O)N[C@@H](CCCNC(=N)N)C(N)=O)cccc12 [Dansyl-QQR-amide, dansyl-Gln-Gln-Arg-NH2] (Dansyl-Gln-Gln-Arg-NH2)
33 | 20 | CN(C)c1cccc2c(S(=O)(=O)N[C@@H](CCC(N)=O)C(=O)N[C@@H](CCCNC(=N)N)C(=O)N[C@@H](CCCNC(=N)N)C(N)=O)cccc12 [Dansyl-QRR-amide] (Dansyl-Gln-Arg-Arg-NH2)
34 | 42 | CN(C)c1cccc2c(S(=O)(=O)N[C@@H](CCC(N)=O)C(=O)N[C@@H](CO)C(=O)N[C@@H](CCCNC(=N)N)C(N)=O)cccc12 [Dansyl-QSR-amide, dansyl-Gln-Ser-Arg-NH2] (Dansyl-Gln-Ser-Arg-NH2)
35 | 27 | C[C@@H](O)[C@H](NC(=O)[C@H](CCC(N)=O)NS(=O)(=O)c1cccc2c(N(C)C)cccc12)C(=O)N[C@@H](CCCNC(=N)N)C(N)=O [Dansyl-QTR-amide] (Dansyl-Gln-Thr-Arg-NH2)
36 | 17 | CC(C)[C@H](NC(=O)[C@H](CCC(N)=O)NS(=O)(=O)c1cccc2c(N(C)C)cccc12)C(=O)N[C@@H](CCCNC(=N)N)C(N)=O [Dansyl-QVR-amide] (Dansyl-Gln-Val-Arg-NH2)
37 | 30 | CN(C)c1cccc2c(S(=O)(=O)N[C@@H](CCC(N)=O)C(=O)N[C@@H](Cc3c[nH]c4ccccc34)C(=O)N[C@@H](CCCNC(=N)N)C(N)=O)cccc12 [Dansyl-QWR-amide] (Dansyl-Gln-Trp-Arg-NH2)
38 | 20 | CN(C)c1cccc2c(S(=O)(=O)N[C@@H](CCC(N)=O)C(=O)N[C@@H](Cc3ccc(O)cc3)C(=O)N[C@@H](CCCNC(=N)N)C(N)=O)cccc12 [Dansyl-QYR-amide] (Dansyl-Gln-Tyr-Arg-NH2)
39 | −42 | C[C@H](NC(=O)[C@H](CCCNC(=N)N)NS(=O)(=O)c1cccc2c(N(C)C)cccc12)C(=O)N[C@@H](CCCNC(=N)N)C(N)=O [Dansyl-RAR-amide] (Dansyl-Arg-Ala-Arg-NH2)
40 | −11 | CN(C)c1cccc2c(S(=O)(=O)N[C@@H](CCCNC(=N)N)C(=O)N[C@@H](CC(=O)O)C(=O)N[C@@H](CCCNC(=N)N)C(N)=O)cccc12 [Dansyl-RDR-amide] (Dansyl-Arg-Asp-Arg-NH2)
